Data reported in patent US20090208432A1, “AH Receptor Antagonists” (SYMRISE GmbH & Co., KG, priority 2006, published 2009).

Molecular target: T1, AhR (Homo sapiens, UniProt P35869)
T1 construct: endogenous in cells; host or cells: HaCaT keratinocytes
T1 sequence (P35869 11-848): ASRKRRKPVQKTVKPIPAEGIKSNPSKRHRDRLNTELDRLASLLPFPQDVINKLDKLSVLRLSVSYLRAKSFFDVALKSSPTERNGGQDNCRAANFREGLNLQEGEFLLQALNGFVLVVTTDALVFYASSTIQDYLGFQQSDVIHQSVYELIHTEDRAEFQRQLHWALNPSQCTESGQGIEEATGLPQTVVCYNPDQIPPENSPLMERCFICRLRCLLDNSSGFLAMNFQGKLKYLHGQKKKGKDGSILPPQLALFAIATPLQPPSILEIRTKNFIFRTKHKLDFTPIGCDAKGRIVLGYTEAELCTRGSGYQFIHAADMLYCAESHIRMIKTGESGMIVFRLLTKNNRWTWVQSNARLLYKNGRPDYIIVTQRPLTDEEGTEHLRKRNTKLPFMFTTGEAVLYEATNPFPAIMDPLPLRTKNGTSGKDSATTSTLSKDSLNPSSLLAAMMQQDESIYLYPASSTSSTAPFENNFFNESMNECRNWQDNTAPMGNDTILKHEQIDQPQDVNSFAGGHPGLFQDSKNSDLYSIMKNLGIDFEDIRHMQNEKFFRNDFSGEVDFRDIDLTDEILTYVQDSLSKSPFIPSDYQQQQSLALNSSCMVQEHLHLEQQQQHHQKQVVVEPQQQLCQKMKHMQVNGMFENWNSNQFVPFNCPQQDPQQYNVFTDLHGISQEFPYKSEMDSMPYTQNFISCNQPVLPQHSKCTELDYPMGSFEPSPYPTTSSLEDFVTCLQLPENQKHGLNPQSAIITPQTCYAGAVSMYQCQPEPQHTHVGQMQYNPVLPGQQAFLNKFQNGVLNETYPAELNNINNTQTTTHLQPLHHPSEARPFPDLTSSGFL
Assay: Quantification of AhR inhibition via determination of CYP1A1-mRNA in UVB-irradiated HaCaT keratinocytes
Assay type: cell-based
Details: HaCaT cells, 100 J/m^2 UVB, pretreated 1 h before irradiation, RNA after 4 h, relative to control (PBS, 0.1% DMSO, UVB-irradiated)
Description: HaCaT keratinocytes were cultivated in DMEM containing 10% of foetal calf serum. The cells were irradiated with UVB in PBS (phosphate buffered saline). For irradiation with UVB we used a TL20W/12RS lamp, which contains four parallel tubes (Philips, Eindhoven, The Netherlands) and emits the bulk of its energy in the UVB range (290-320 nm). The emission peak of the lamp is at 310 nm. Control cells were subjected to the same treatment but were not irradiated. To inhibit the AhR, the cells were treated with the test substances 1 h prior to irradiation.
HaCaT cells were irradiated with 100 J/m^2 of UVB. Some cells were pretreated with the test substances 1 h prior to irradiation. […] The PCR mix was composed of 1/10 by volume of QuantiTect® SYBR Green PCR Master Mix (Qiagen, Hilden, Germany), 0.5 μmol/l of the appropriate primer, 2 μl of cDNA and DEPC-treated (diethyl pyrocarbonate-treated) H2O in a final volume of 20 μl. […] The PCR conditions were as follows: 40 cycles of 15 sec at 94° C. for denaturing, 25 sec at 60° C. for primer attachment, 30 sec at 72° C. for extension and 2 sec at 72° C. for fluorescence measurement. […] The PCR products were quantified via a fragment-specific standard curve using LightCycler software 3. […]
Quantification of AhR Inhibition Via Determination of CYP1A1-mRNA

Compound | inhibition at 350 µM (0.35 mM, read-out: CYP1A1 inhibition in presence of UVB light) [%] | CYP1A1 inhibition in presence of UVB light (0.0001 wt. %) [%]
Oc1ccc2c(c1)OC[C@H]1c3cc4c(cc3O[C@@H]21)OCO4 [Maackiain] | 60 | 
Oc1ccc2c(c1)OC1c3cc(O)c(O)cc3COC1C2O (centres unmarked) [Peltogynol] |  | 60
